Data on one molecule can be found in ChEMBL document CHEMBL5338823, “Discovery of Novel 5,6-Dihydro-1,2,4-triazine Derivatives as Efficacious Glucagon-Like Peptide-1 Receptor Agonists” (J Med Chem, 2023).

SMILES strings stand for the structures. Active and inactive are the calls of the source. No cut-off for these calls is given here.

Assay [1] deals with T1, Glucagon-like peptide 2 receptor (Homo sapiens) (UniProt O95838).
T1 sequence (whole entry): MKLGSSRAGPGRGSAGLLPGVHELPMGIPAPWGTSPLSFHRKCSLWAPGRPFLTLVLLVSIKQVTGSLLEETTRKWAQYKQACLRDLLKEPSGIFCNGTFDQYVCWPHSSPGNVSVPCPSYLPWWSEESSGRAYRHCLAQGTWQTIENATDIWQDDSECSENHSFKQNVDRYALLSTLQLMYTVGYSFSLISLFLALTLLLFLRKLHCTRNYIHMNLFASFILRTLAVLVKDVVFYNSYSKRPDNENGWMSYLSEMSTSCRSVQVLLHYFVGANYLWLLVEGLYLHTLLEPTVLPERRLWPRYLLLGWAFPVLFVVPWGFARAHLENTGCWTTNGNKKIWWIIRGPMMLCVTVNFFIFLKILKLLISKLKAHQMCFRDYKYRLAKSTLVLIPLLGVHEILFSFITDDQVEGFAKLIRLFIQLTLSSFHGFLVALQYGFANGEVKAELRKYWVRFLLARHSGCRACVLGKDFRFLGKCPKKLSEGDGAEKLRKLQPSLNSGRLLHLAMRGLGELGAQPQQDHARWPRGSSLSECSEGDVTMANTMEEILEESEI
Description: Agonist activity at GLP-2R (unknown origin) expressed in HEK293 cells assessed as effect on intracellular cAMP accumulation incubated for 30 mins by LANCA ultra cAMP assay. It counts as functional, cell-based.

Assay [2] addresses T2, Glucagon-like peptide 1 receptor (Mus musculus) (UniProt O35659).
T2 sequence (whole entry): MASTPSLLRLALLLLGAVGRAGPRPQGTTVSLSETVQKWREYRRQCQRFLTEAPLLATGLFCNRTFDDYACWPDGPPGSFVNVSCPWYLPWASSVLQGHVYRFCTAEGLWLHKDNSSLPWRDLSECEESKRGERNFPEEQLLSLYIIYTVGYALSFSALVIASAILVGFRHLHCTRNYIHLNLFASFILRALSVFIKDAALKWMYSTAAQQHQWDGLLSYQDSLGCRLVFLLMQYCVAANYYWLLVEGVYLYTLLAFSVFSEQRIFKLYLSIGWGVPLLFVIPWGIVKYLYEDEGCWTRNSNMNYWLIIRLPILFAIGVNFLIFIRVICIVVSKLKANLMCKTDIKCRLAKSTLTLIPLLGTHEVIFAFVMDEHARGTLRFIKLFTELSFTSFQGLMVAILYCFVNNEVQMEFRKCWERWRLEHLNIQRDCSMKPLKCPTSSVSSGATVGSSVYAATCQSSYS
The experiment in a line: Activation of mouse GLP-1R.

`COc1cc(C(F)(F)F)ccc1COc1cccc(N2C=NN(Cc3nc4c(F)cc(C(=O)O)cc4n3C[C@@H]3CCO3)CC2)n1`: the outcome in assay [1] and in assay [2] was inactive.
